Data reported in ChEMBL document CHEMBL4819037, “Phytochemical Profiling and Biological Activity of the Australian Carnivorous Plant, Drosera magna” (J Nat Prod, 2021).
Active and inactive are the calls of the source. No cut-off for these calls is given here.

Columns and labels:
Haemonchus contortus [1] = assay: Anti-helmintic activity against third-stage xL3 Haemonchus contortus larvae assessed as inhibition of larvae motility at 100 uM measured after 72 hrs; type: functional, organism-based
Haemonchus contortus [2] = assay: Anti-helmintic activity against fourth stage L4 Haemonchus contortus larvae assessed as inhibition of larvae motility at 100 uM after 72 hrs; type: functional; parameters: scale not given: the % may be the effect or the level left
Cryptococcus neoformans [3] = assay: Antimicrobial activity against Cryptococcus neoformans var. grubii ATCC 208821 assessed as inhibition of fungal growth at 4 ug/ml incubated for 24 hrs by resazurin dye based assay; type: functional; parameters: scale not given: the % may be the effect or the level left; conditions: dose 4 µg/ml
HEK293 = assay: Cytotoxicity against human HEK293 cells at 32 ug/ml; type: cell-based
Haemonchus contortus [4] = assay: Anti-helmintic activity against fourth stage L4 Haemonchus contortus larvae assessed as induction of abnormal morphological phenotype at >= 50 uM after 7 days; type: functional, organism-based; conditions: dose microM >=50, time 7.0 day
Candida albicans [5] = assay: Antimicrobial activity against Candida albicans ATCC 90028 assessed as inhibition of fungal growth at 8 ug/ml incubated for 24 hrs by resazurin dye based assay; type: functional; parameters: scale not given: the % may be the effect or the level left; conditions: dose 8 µg/ml
Acinetobacter baumannii = assay: Antimicrobial activity against Acinetobacter baumannii ATCC 19606 assessed as inhibition of bacterial growth at 32 ug/ml incubated for 18 hrs by resazurin dye based assay; type: functional, organism-based; conditions: ATCC 19606 = CIP 70.34 = JCM 6841, dose 32.0 µg/ml
Staphylococcus aureus [6] = assay: Antimicrobial activity against methicillin-resistant Staphylococcus aureus ATCC 43300 assessed as inhibition of bacterial growth at 32 ug/ml incubated for 18 hrs by resazurin dye based assay; type: functional, organism-based; conditions: dose 32.0 µg/ml
Candida albicans [7] = assay: Antimicrobial activity against Candida albicans ATCC 90028 assessed as inhibition of fungal growth at 32 ug/ml incubated for 24 hrs by resazurin dye based assay; type: functional, organism-based; conditions: dose 32.0 µg/ml
Escherichia coli = assay: Antimicrobial activity against Escherichia coli ATCC 25922 assessed as inhibition of bacterial growth at 32 ug/ml incubated for 18 hrs by resazurin dye based assay; type: functional, organism-based; conditions: dose 32.0 µg/ml
Klebsiella pneumoniae = assay: Antimicrobial activity against Klebsiella pneumoniae ATCC 700603 assessed as inhibition of bacterial growth at 32 ug/ml incubated for 18 hrs by resazurin dye based assay; type: functional, organism-based; conditions: dose 32.0 µg/ml
Pseudomonas aeruginosa = assay: Antimicrobial activity against Pseudomonas aeruginosa ATCC 27853 assessed as inhibition of bacterial growth at 32 ug/ml incubated for 18 hrs by resazurin dye based assay; type: functional, organism-based; conditions: dose 32.0 µg/ml
Cryptococcus neoformans [8] = assay: Antimicrobial activity against Cryptococcus neoformans var. grubii ATCC 208821 assessed as inhibition of fungal growth at 32 ug/ml incubated for 24 hrs by resazurin dye based assay; type: functional; conditions: dose 32.0 µg/ml
[9] = Hemolytic activity against RBC (unknown origin) at 32 ug/ml; type: ADME, cell-based, Erythrocyte; conditions: red blood cells (erythrocytes), at 32 µg/mL, read-out: Activity
Staphylococcus aureus [10] = assay: Antimicrobial activity against methicillin-resistant Staphylococcus aureus ATCC 43300 assessed as inhibition of bacterial growth at < 0.2 ug/ml incubated for 18 hrs by resazurin dye based assay; type: functional; parameters: scale not given: the % may be the effect or the level left; conditions: dose microg/ml <0.2
Cryptococcus neoformans [11] = assay: Antimicrobial activity against Cryptococcus neoformans var. grubii ATCC 208821 assessed as inhibition of fungal growth at 8 ug/ml incubated for 24 hrs by resazurin dye based assay; type: functional; parameters: scale not given: the % may be the effect or the level left; conditions: dose 8 µg/ml

With `COc1ccc(-c2oc3cc(OC4OC(C)C(O)C(O)C4O)cc(O)c3c(=O)c2OC2OC(C)C(O)C(O)C2O)cc1O` (configuration not stated) the Activity (Haemonchus contortus [1]) was “inactive”.
With `CC1=C(O)C(=O)c2c(O)ccc(O)c2C1=O` the Activity (Haemonchus contortus [2]) was 27%, the Activity (Haemonchus contortus [1]) was “inactive” and the Activity (Cryptococcus neoformans [3]) was 100%. The Activity (HEK293; dose 32 µg/ml) was “Non-Toxic”, the Activity (Haemonchus contortus [4]) was “Active” and the Activity (Candida albicans [5]) was 98%.
With `O=C1CC(c2ccc(O)cc2)Oc2cc(O)c([C@@H]3O[C@H](CO)[C@@H](O)[C@H](O)[C@H]3O)c(O)c21` (some centres not stated) the Activity (Acinetobacter baumannii) was “Active”, the Activity (Staphylococcus aureus [6]) was “Active” and the Activity (Candida albicans [7]) was “Active”. For the same compound, the Activity (Escherichia coli) was “Active”, the Activity (Klebsiella pneumoniae) was “Active” and the Activity (Pseudomonas aeruginosa) was “Active”. The Activity (Cryptococcus neoformans [8]) was “Active”.
With `O=c1c(O[C@@H]2O[C@H](CO)[C@@H](O)[C@H](O)[C@H]2O)c(-c2ccc(O)c(O)c2)oc2cc(O)cc(O)c12` [ISOQUERCETIN] the Activity (Acinetobacter baumannii) was “Active”, the Activity (Staphylococcus aureus [6]) was “Active” and the Activity (Candida albicans [7]) was “inactive”. The hemolysis at 32 ug/ml [9] was greater than 10%, the Activity (Escherichia coli) was “Active” and the Activity (Klebsiella pneumoniae) was “Active”. For the same compound, the Activity (Pseudomonas aeruginosa) was “Active” and the Activity (Cryptococcus neoformans [8]) was “Active”.
`CC1=CC(=O)c2c(O)cccc2C1=O` [PLUMBAGIN] gave an Activity (HEK293; at 32 µg/mL) of 92%, an Activity (Staphylococcus aureus [10]) of 96% and an Activity (Cryptococcus neoformans [11]) of 100%.
With `CC1=C(O)C(=O)c2c(OC3OC(CO)C(O)C(O)C3O)ccc(O)c2C1=O` (configuration not stated) the Activity (Candida albicans [7]) was “Active”.
For `COc1ccc(-c2oc3cc(OC4OC(C)C(O)C(OC(C)=O)C4O)cc(O)c3c(=O)c2OC2OC(C)C(O)C(O)C2O)cc1O` (configuration not stated), the Activity (Haemonchus contortus [1]) was “inactive”.
